The test system of data set [1] is Ndufs4−/− mice. Briefly: Survival of Ndufs4−/− mice (mouse model of Leigh syndrome). The format is in vivo. An excerpt: (§1) Two mouse lines were used in this study: (1) a validated mouse genetic model of MD (Kruse, S. E., et al. Cell Metab. 2008, 7: 312-320; Quintana, A., et al. Proc. Natl. Acad. Sci. USA. 2010, 107: 10996-11001), lacking Ndufs4 constitutively (Ndufs4^−/−, Ndufs4 KO) and wild-type (WT) littermates (Ndufs4^+/+) as controls, and (2) a conditional knockout mouse line lacking Ndufs4 selectively in GABAergic cells (Bolea et al. 2019 (https://elifesciences.org/articles/47163). For the latter, mice expressing cre-recombinase under the control of the Gad2 promoter (Quintana, A., et al. Nat. Neurosci. 2012, 15: 1547-1555) and one floxed Ndufs4 allele (Gad2^cre/+:Ndufs4^lox/+) were bred with mice carrying two floxed Ndufs4 alleles (Ndufs4^lox/lox). Out of all the possible offspring, Gad2^cre/+: Ndufs4^lox/lox mice bear Ndufs4 deficiency selectively in GABAergic neurons. Mice with Gad2^cre/+:Ndufs4^lox/+ genotype with one functional Ndufs4 allele as well as mice with the Gad2^cre/+:Ndufs4^lox/lox genotype were used as controls.
Ndufs4 encodes a protein involved in assembly, stability, and activity of complex I of the mitochondrial electron transport chain. Ndufs4^−/− mice display a progressive neurodegenerative phenotype, which resembles the human disease and includes retarded growth rate, weight loss, lethargy, loss of motor skills, and premature death.

The test system of data set [2] is Ndufs4−/− mice. Nature of the data set: Clasping onset in Ndufs4−/− mice. The format is in vivo, mouse. The settings on record: CBD 100 mg/kg once daily vs vehicle-treated, p<0.05.
Text: as §1
Clasping behaviour was used as a sign of neurological degeneration (Johnson, S. C., et al. Science. 2013, 342: 1524-1528). Clasping consisted in an inward curling of the spine and a retraction of the forelimbs and/or hindlimbs toward the midline of the body.

For data set [3], the system named is Ndufs4−/− mice. Nature of the data set: Accelerating rotarod performance in Ndufs4−/− mice. Type of data set: in vivo, mouse. The note with it: Ndufs4KO mice, CBD 100 mg/kg once daily; postnatal day 30, 40, 50.
Text: as §1
Rotarod was performed at postnatal day 30, 40, and 50. Mice were placed on a rotating drum that gradually accelerated from 4 rpm to 40 rpm over 300 sec. Each trial ended when a mouse fell off, made one complete backward revolution while hanging on, or reached 5-min. Each mouse was tested in 3 trials/day spaced 20 min apart. The results of the 3 trials were averaged.
(In general: Falling from the rotarod earlier than controls is read as motor impairment.)

The subject of data set [4] is Gad2:Ndufs4cKO mice. Nature of the data set: Survival of Gad2:Ndufs4cKO mice (cell type-specific mouse model of Leigh syndrome). Type of data set: in vivo.
Text: as §1
Given the early onset severe phenotype that results in death at a median age of ˜40 days in Ndufs4^−/− mice, it is difficult to study certain clinical signs that recapitulate some symptoms of the human pathology. […]

Data set [5] concerns Gad2:Ndufs4cKO mice. Briefly: Three-chamber social approach test. Type of data set: in vivo, mouse. The settings on record: control mice, CBD 100 mg/kg twice/day.
Text: as §1, with “Mice with Gad2^cre/+:Ndufs4^lox/+ genotype with one functional Ndufs4 allele as well as mice with the Gad2^cre/+:Ndufs4^lox/lox genotype were used as controls.” left out
A three-chamber arena was used to assess sociability as previously described (Puighermanal et al, Front Mol Neurosci., 2017, 10:419). […] The time spent sniffing the unfamiliar mouse and the empty wire cage was manually scored. The discrimination index for sociability was calculated as follows: (time exploring unfamiliar mouse—time exploring empty wire cage)/(total exploration time)*100. […]

For data set [6] the following is noted: rodents; cited from earlier work.

The term half-life denotes the time needed for the level to fall by half in the phase considered. The compound `C=C(C)[C@@H]1CCC(C)=C[C@H]1c1c(O)cc(CCCCC)cc1O` [CBD, (−)-trans-2-p-mentha-l,8-dien-3-yl-5-pentylresorcinol] had a median survival in the data set with Ndufs4−/− mice [1] (Ndufs4KO mice, CBD 100 mg/kg once/day intraperitoneal from postnatal day 24-30) of 75.5 days. For the same compound, the “life span (survival)” value in the data set with Ndufs4−/− mice [1] (Ndufs4−/− mice, CBD 100 mg/kg once daily, log-rank p<0.0001) is listed as “significantly extended the life span”; in the data set on Gad2:Ndufs4cKO mice [4] (CBD 100 mg/kg twice daily, log-rank p<0.0001), “extended the life span”. Moreover, the “appearance (onset) of clasping” value in the data set with Ndufs4−/− mice [2] is on record as “significantly delayed”. For the same compound, the “rotarod performance (time to fall off)” value with Ndufs4−/− mice [3] was “delayed the progressive decline”. Moreover, the average survival time with Gad2:Ndufs4cKO mice [4] (CBD 100 mg/kg intraperitoneal twice daily from postnatal day 35-40, p<0.0001) was 87 days. In addition, the “sociability (social interaction)” value with Gad2:Ndufs4cKO mice [5] is on record as “no effect”. Besides, the half-life in data set [6] is listed as ~4.5 h.

Source of the values: patent publication US12343316B2, “Cannabidiol and/or derivatives thereof for use in the treatment of mitochondrial diseases” (U[…] DE BARCELONA, priority 2019, dated 2025).
